Read-outs that look alike come from different tables or passages of the source.
Tests used:
[1] = tested on: iCell endothelial cells (human iPSC-derived ECs); test: Tube formation (tubulogenesis) assay in iCell endothelial cells, 18 h; format: cell-based; details: Homo sapiens, Endothelial cell, iPSC-EC; for activity at 0.1 µM: 0.10 µM; for minimal effective concentration: 100.00 = highest concentration tested
Procedure, shortened: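 iCell ECs (passages 1–5) seeded 7,500 cells/well on reduced-growth-factor Geltrex in starvation medium, exposed overnight at 37°C to compounds in triplicate concentration–response (0.5% DMSO vehicle). Calcein AM staining, 4× imaging, angiogenesis image analysis; readouts normalized to vehicle, four-parameter logistic fit, POD at 1 SD of vehicle; 100 μM assigned NOAEL if no response.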

[2] = tested on: iCell endothelial cells (human iPSC-derived ECs); test: High-content imaging cytotoxicity in iCell endothelial cells, 24 h; format: cell-based; details: Homo sapiens, Endothelial cell, iPSC-EC; for viability at 0.1 µM / activity at 0.1 µM: 0.10 µM; for minimal effective concentration: 100.00 = highest concentration tested
Procedure, shortened: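 Human iPSC-derived endothelial cells (passages 1–5) were grown to a fibronectin-coated monolayer, then exposed 24 h at 37 °C with 0.5% DMSO vehicle. Staining was Hoechst 33342, MitoTracker Orange and calcein AM, read by high-content imaging. Point of departure came from 4-parameter logistic fits, with a 1-SD vehicle cutoff and 100 µM as the top concentration.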

[3] = 0.00 µM = 100.00, read-out: endo.mtl.18hr
[4] = 0.00 µM = 100.00, read-out: endo.tlps.18hr
[5] = 0.00 µM = 100.00, read-out: endo.tta.18hr
[6] = 0.00 µM = 100.00, read-out: endo.ttl.18hr
[7] = 0.00 µM = 100.00, read-out: endo.cyto.24hr
[8] = 0.00 µM = 100.00, read-out: endo.mito.24hr
[9] = 0.00 µM = 100.00, read-out: endo.mitoint.24hr
[10] = 0.00 µM = 100.00, read-out: endo.nma.24hr
[11] = 0.00 µM = 100.00, read-out: endo.tc.24hrs

Clc1cc(Cl)c(-c2cc(Cl)c(Cl)cc2Cl)cc1Cl [PCB153]
activity at 0.01 µM [1, 3]: 121% | activity at 0.01 µM [1, 4]: 80.7% | activity at 0.01 µM [1, 5]: 103% | activity at 0.01 µM [1, 6]: 116% | activity at 0.1 µM [1, 3]: 119% | activity at 0.1 µM [1, 4]: 104% | activity at 0.1 µM [1, 5]: 124% | activity at 0.1 µM [1, 6]: 134% | activity at 1 µM [1, 3]: 122% | activity at 1 µM [1, 4]: 111% | activity at 1 µM [1, 5]: 111% | activity at 1 µM [1, 6]: 123% | activity at 10 µM [1, 3]: 135% | activity at 10 µM [1, 4]: 202% | activity at 10 µM [1, 5]: 148% | activity at 10 µM [1, 6]: 157% | activity at 100 µM [1, 3]: 55.1% | activity at 100 µM [1, 4]: 21.1% | activity at 100 µM [1, 5]: 20.2% | activity at 100 µM [1, 6]: 22.9% | minimal effective concentration ([1]; read-out: endo.mtl.18hr POD): 0.007 µM | minimal effective concentration ([1]; read-out: endo.tlps.18hr POD): 1.93 µM | minimal effective concentration ([1]; read-out: endo.tta.18hr POD): 3.83 µM | minimal effective concentration ([1]; read-out: endo.ttl.18hr POD): 0.58 µM | viability at 0.01 µM [2, 7]: 97.6% | activity at 0.01 µM [2, 8]: 97.9% | activity at 0.01 µM [2, 9]: 86% | activity at 0.01 µM [2, 10]: 102% | viability at 0.01 µM [2, 11]: 97.6% | viability at 0.1 µM [2, 7]: 97.8% | activity at 0.1 µM [2, 8]: 98.2% | activity at 0.1 µM [2, 9]: 85.5% | activity at 0.1 µM [2, 10]: 101% | viability at 0.1 µM [2, 11]: 97.8% | viability at 1 µM [2, 7]: 103% | activity at 1 µM [2, 8]: 103% | activity at 1 µM [2, 9]: 84.3% | activity at 1 µM [2, 10]: 100% | viability at 1 µM [2, 11]: 103% | viability at 10 µM [2, 7]: 109% | activity at 10 µM [2, 8]: 110% | activity at 10 µM [2, 9]: 80.5% | activity at 10 µM [2, 10]: 98% | viability at 10 µM [2, 11]: 109% | viability at 100 µM [2, 7]: 45.5% | activity at 100 µM [2, 8]: 42% | activity at 100 µM [2, 9]: 57.6% | activity at 100 µM [2, 10]: 108% | viability at 100 µM [2, 11]: 46.4% | minimal effective concentration ([2]; read-out: endo.cyto.24hr POD): 18.6 µM | minimal effective concentration ([2]; read-out: endo.mito.24hr POD): 18.6 µM | minimal effective concentration ([2]; read-out: endo.mitoint.24hr POD): 0.07 µM | minimal effective concentration ([2]; read-out: endo.nma.24hr POD): 62.5 µM | minimal effective concentration ([2]; read-out: endo.tc.24hrs POD): 49.2 µM
